Test results reported in US20090209605A1, “NEMATICIDAL COMPOSITIONS” (Devgen N.V., priority 2004, published 2009).

Columns and labels:
Type in all cases: in vivo
[1] = test system: sugar beet (variety GEA (KWS)); test: Pot Assay 3: phytotoxicity, number of sugar beet plants emerged
Protocol: (§1) Each compound or compound mixture as described herein was tested in 4 different rates with 4 replicates per rate. One pot per replicate was used in which 18 beava sugar beet seeds (variety GEA (KWS)) were sown. After crop germination, the number of plants was reduced to 10 plants. The 4 rates added to the soil of the tested compounds or compound mixtures were 0.05 mg, 0.20 mg, 1 mg and 5 mg. These amounts translate to field application rates respectively as 30, 120, 600 and 3000 g per hectare.
Phytotoxicity assessments were carried by assessing any possible effects of the chemicals on the crop, such as chlorosis, yellowing, stunting, in comparison to the untreated control without nematodes.

Heterodera nematode = test: Pot Assay 3: Heterodera infection of sugar beet, crop vigor and crop height; conditions: infested soil
From the text: The soil used in this assay originated from a Heterodera nematode infested sugar plot of which the infestation was confirmed by means of several soil analyses. Each pot was filled up with a soil mixture composed as follows: a) the infested soil was constituted by silt loam soil (about 600 g/pot) mixed with sterile peat (about 600 g/pot) and sterile cork (about 200 g/pot); b) the sterile soil was instead constituted only by sterile peat (1200 g/pot) and sterile cork (200 g/pot).
as §1
Efficacy of the compounds described herein as nematicide was measured by visual inspection of the crop vigor and the crop height. The crop vigor evaluation is based on a 0-100 scale, where 0 is “no vigor” and 100 is “maximum vigor”. The crop height development is based on a measurement, in cm, per plant, excluding the root system.
Positive control plants were treated with Oxamyl (Vydate 5 G, 5% gr) at a rate of 40 kg fp per ha. Negative controls involved single negative controls (no compound, with nematode infested soil; referenced as “Untreated 1”) and double negative controls (no compound, sterile soil; referenced as “Untreated 2”).

[2] = test system: Meloidogyne incognita nematodes; test: Pot Assay 1: Meloidogyne infection of potato, egg masses/galls on roots; conditions: potato in pot, week 8 after inoculation
Procedure, shortened: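 Potato (cv. Bintje) grown in sand pots at 14–18 °C in greenhouse. Compound in DMSO spread on sand one day before inoculation with ~1500 M. incognita juveniles; concentration assumes full diffusion in pot. Root galls counted 8 weeks post-inoculation, plant development also scored; triplicates, aldicarb and DMSO/untreated controls.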

Meloidogyne nematodes = test: Pot Assay 2: Meloidogyne infection of tomato, % infestation of roots; conditions: RATE 0.05 mg; tomato in infested soil
Protocol: The soil used in this assay originated from a plot, heavily infested with Meloidogyne nematodes. Part of this soil was sterilized by autoclaving and was used as negative control. Sandy soil, which was not infested with nematodes, was pursued from a commercial source.
Plastic seedling trays with wells of 60 ml capacity were filled with about 40 ml of soil per well. 5 ml of water per well was used for irrigation.
Compounds as described herein were tested in 4 different rates and with 12 replicates for each concentration. The compounds as described herein were stored as dry films of 4 different concentrations. The day of the application of the compounds, all the dry films were dissolved in 60 ml water and poured into the 12 replicate wells: 5 ml per well. Every tray of 12 wells was identified with a label, indicating compound and concentration used. The 4 final rates in the soil of the tested compound were approximately 0.05 mg, 0.20 mg, 1 mg and 5 mg. These amounts translate to field application rates respectively as 30, 120, 600 and 3000 g per hectare.
3-5 days after application of the tested compound, tomato seeds (cv. Rio Grande) were sown in the wells by hand, at about 2 cm deep. A light cover of vermiculite on the surface was used to avoid dehydration. Plants were irrigated by micro-nebulization 3-4 times per week at a rate of 3 L/m^2, weeded by hand and treated with fertilizers, fungicide and insecticides when needed.
Their resistance against nematode infection was monitored and the efficacy of compounds described herein as a nematicide was measured. Furthermore the phytotoxicity of the test compounds was evaluated.
Efficacy of the compounds described herein as nematicide was measured by giving the roots a percentage of infestation measured as follows. Plants were grown to reach good development of the roots, which corresponds to plants grown to about 10 cm high at about one month after emergence. After removal of the soil from the roots by rinsing with water, the roots were visually inspected and root galls were counted on 4 plants of the set of 12 replicate plants.
Positive control plants were treated with a 10 micromolar concentration of oxamyl (Vydate, 10% SL; the rate of 10 micromolar corresponds to a commercial rate of 20 l/ha), a known nematicide. Negative controls involved double negative controls (no compound, sterile soil), and single negative controls (no compound, with nematode infested soil).

[3] = test system: stubby root nematodes (Paratrichodorus), stunt nematodes (Tylenchorhynchus spp.), root lesion nematodes (Pratylenchus spp.) and root knot nematodes …; test: Nematicide field trial on carrots: % deformed carrots
Protocol: Garden carrots were grown in the open field. The soil contained high levels of stubby root nematodes (Paratrichodorus), stunt nematodes (Tylenchorhynchus spp.), root lesion nematodes (Pratylenchus spp.) and root knot nematodes (Meloidogyne spp.).
An experimental pattern at Complete Randomized Blocks with four replicas was adopted. Besides the experimental products, each test also included an untreated control and a treatment with the standard commercial product VYDATE 10L (10%) applied in accordance to label instructions.
In carrots, nematodes cause deformation such as stunting, dwarfing, twisting, splitting and bearding. For these experiments, the total percentage of deformed carrots were considered, as these are not marketed for human consumption and are of no commercial interest.
Three different tests have been performed (Tables 9, 10 and 11), each containing an untreated and commercial reference control. All treatments were statistically different from untreated control.

CCCCc1c(C)nc(NCC)nc1OS(=O)(=O)N(C)C [XLIII]
# crops emerged (max 18) ([1]; Rate 1 mg): 18
# crops emerged (max 18) ([1]; Rate 5 mg): 18
crop height (cm) (Heterodera nematode; Rate 1 mg): 14 cm
crop vigor (max 100%) (Heterodera nematode; Rate 1 mg): 80%
crop height (cm) (Heterodera nematode; Rate 5 mg): 15 cm
crop vigor (max 100%) (Heterodera nematode; Rate 5 mg): 100%
number of egg masses (galls) on roots, Replicate 3 ([2]; 0.5 μM): 30
number of egg masses (galls) on roots, Replicate 2 ([2]; 2 μM): 35
number of egg masses (galls) on roots, Replicate 3 ([2]; 2 μM): 25
number of egg masses (galls) on roots, Replicate 1 ([2]; 10 μM): 15
number of egg masses (galls) on roots, Replicate 2 ([2]; 10 μM): 5
number of egg masses (galls) on roots, Replicate 3 ([2]; 10 μM): 10
number of egg masses (galls) on roots, Replicate 1 ([2]; 50 μM): 0
number of egg masses (galls) on roots, Replicate 2 ([2]; 50 μM): 15
number of egg masses (galls) on roots, Replicate 3 ([2]; 50 μM): 5
% INF. (% Infestation) (Meloidogyne nematodes): 1.3%
% total deformed ([3]; test of Table 9, Product Rate 500 g ai/ha): 35.53%
% total deformed ([3]; test of Table 9, Product Rate 1500 g ai/ha): 41.34%
% total deformed ([3]; test of Table 9, Product Rate 3000 g ai/ha): 41.02%
